From paper PMC10747913, “Preparation of ^18F-Labeled Tracers Targeting Fibroblast Activation Protein via Sulfur [^18F]Fluoride Exchange Reaction” (Pharmaceutics, 2023) come the findings set out here.

Structures are written as SMILES. Entries after “also recorded” stand apart in the source; their conditions may differ.

A short description of one data set: Stability in EtOH. Type of data set: physicochemical. To be noted: 120 min. Here is the method: In addition, we performed a series of stability studies of compounds [^18F]12 and [^18F]13 in EtOH, phosphate-buffered saline (PBS, pH 7.4) and human serum (37 °C) to provide an indication of the rates of in vivo defluorination. […] These findings correlate with the unwanted accumulation of activity in the bones and joints obtained during PET imaging experiments in a healthy mice (Figure 5A,B).

A short description of data set [1]: LogD7.4 determination by n-octanol/PBS partitioning. The format is physicochemical. The conditions noted are these: n-octanol/phosphate-buffered saline; partitioning between PBS pH 7.4 and octanol. Here is the method: The LogD7.4 determination of [^18F]12 was determined in a similar manner as previously described and proceeded as follows. [^18F]12 (1 μL, ca. 0.5 MBq) was pipetted into an Eppendorf tube containing 600 μL of n-octanol (presaturated with phosphate-buffered saline) and 600 μL of phosphate-buffered saline buffer (0.02 M, pH = 7.4). The tube was vortexed for 15 min at room temperature, and the two phases were separated by centrifugation at 5000 rpm for 3 min. An aliquot (400 µL) from the n-octanol layer was pipetted in a vial containing phosphate-buffered saline (400 µL), the sample mixture was vortexed for 15 min at room temperature and the two phases were separated by centrifugation at 5000 rpm for 3 min. Aliquots (250 µL) from each phase were taken and measured with an automatic γ-counter after subtracting the background activity. The transfer of the aqueous phase requires particular care, as described by Linclau et al.. The partition coefficient was calculated for the acquired samples using Equation (1). (1) logD7.4=log counts per minute (octanol)/counts per minute (phosphate buffer)

A short description of data set [2]: Stability in PBS (pH 7.4). The format is physicochemical. The conditions noted are these: PBS pH 7.4, 120 min. How it is done: (§1) The radiochemical purity and identity of [^18F]12 and [^18F]13 was analyzed with radio-HPLC. […] Prior to a biological evaluation, preliminary stability studies of [^18F]12 and [^18F]13 were performed in human serum at 37 °C (Figure 3A,B). The stability studies were performed by taking an aliquot of the radiolabeled product solution and incubating the product mixture in the desired solvent or human serum at 37 °C for the given time points. In both cases, decomposition of [^18F]12 and [^18F]13 was evident from the first peak in the radioactive channel (tR: 0.6–1.0), most likely due to the release of [^18F]fluoride, which could be detected using UHPLC analysis from the first time point of 15 min and continued until 120 min. After 60 min, approximately 20% of [^18F]12 and 19% of [^18F]13 had been degraded; following a 120 min incubation, approximately 38% of both [^18F]12 and [^18F]13 had been degraded.

The procedure of data set [3]: Microsome experiments with [^18F]12 in the presence of NADPH were performed according to the procedure recently described by us with slight modifications. […] The radiotracer dissolved in EtOH (4 µL; 5 MBq/µL) was diluted with PBS (496 µL, 0.8% EtOH). This radiotracer solution (100 µL, 0.32% EtOH and 16 MBq/mL or 1.6 µM final) was mixed with PBS (112.5 µL) and human liver microsomes (12.5 µL of 20 mg/mL stock; 1 mg/mL final; Gibco™ Cat. No. HMMCPL, Lot. No. PL050E-B) in a 1.5 mL Eppendorf tube and the mixture was warmed for 5 min at 37 °C. Subsequently, NADPH (25 µL of freshly prepared 20 mM solution in PBS, 2 mM final) was added and the mixture was incubated at 37 °C. As a control incubation, NADPH was omitted and replaced by PBS. After distinct time points (10, 20, 30 and 60 min), an aliquot (40 µL) was withdrawn and added to ice-cooled CH3CN (160 µL). The mixture was vortexed for 30 s, stored on ice for 4 min and centrifuged (5 min at 15,000 rpm). The resulting supernatant was used for radio-HPLC analysis using the Shimadzu system described in Section 2.2 with the following conditions. A C18 column Kinetex® from Phenomenex (5 µm, 100 Å, LC Column 250 × 4.6 mm) served as stationary phase. The eluent consisted of (A) 0.1% trifluoroacetic acid in H2O and (B) MeCN; flow rate 1 mL/min; elution profile A/B: t0 min 70/30–t10.0 min 70/30–t11.0 min 5/95–t16.0 min 5/95–t17.0 min 70/30–t22.0 min 70/30.
Testosterone (40 µM final) was used as a positive control for the activity of the HLM and was separately incubated under the conditions described above (0% EtOH final).

Data set [4] in a line: Serum stability assay at 37 °C (radio-UHPLC). Type of data set: in vitro ADME, human. How it is done:
Either [^18F]12 or [^18F]13 (20–40 MBq) in 40 µL EtOH aliquots was incubated with 360 µL human serum (Sigma Aldrich, Darmstadt, Germany) at 37 °C. After specific time intervals (5–120 min), 40 µL samples were taken from the serum incubation mixture, added to 80 µL “Supersol” solubilizing agent (see Supplementary Materials Table S6) and cooled over ice for 2 min. Thereafter, the cooled mixture was centrifuged at 4 °C (15,000 rpm) for 3 min and 80 µL of the supernatant solution was monitored with radio-UHPLC. A gradient of 5% to 45% acetonitrile in 7.5 min was used for enhanced separation.
as §1

A short description of data set [5]: Small-animal PET distribution in healthy mice. The format is in vivo, BALB/cJRj mice. Here is the method:
All animal experiments were carried out according to the guidelines of the German Regulation for Animal Welfare. The protocol was approved by the local Ethical Committee for Animal Experiments. Small-animal PET was performed using the nanoScan® PET/CT (Mediso Medical Imaging Systems, Budapest, Hungary). Each animal (BALB/cJRj mice, n = 2) received an intravenous injection of 10 MBq [^18F]12 delivered in 0.15 mL of 0.154 mol/L NaClaq through a tail vein catheter. Emission of annihilation photons was recorded continuously for 2 h. A corresponding X-ray CT image was recorded and used for anatomical referencing and attenuation correction. List-mode data were sorted into sinograms with 36 frames (15 × 10 s, 5 × 30 s, 5 × 60 s, 4 × 300 s, 3 × 600 s, 4 × 900 s) and reconstructed using the Tera-Tomo™ 3D algorithm, applying corrections for decay, scatter and attenuation. […] Three-dimensional regions of interest (ROI) were created, applying fixed contrast thresholds for delineation of blood (heart content, 80%), liver (80%), kidneys (50%), bone (knee and shoulder joints, 50%), gall bladder and intestine (5%) and urinary bladder (10%). Organ-specific activity concentrations were determined as ROI-averaged standardized uptake values at mid-frame time (SUVmean). Time–activity curves were drawn using Prism 9.0 (GraphPad Software, La Jolla, CA, USA) and the activity retention within each organ was reported as the area under the curve (AUC). Excreted activity fractions were determined as the percent of the initially administered activity dose (%ID).

A short description of data set [6]: Liver cytosol assay (RLC). The format is in vitro ADME, rat. To be noted: 2 mg/mL RLC, up to 60 min, 37 °C. Here is the method: (§2) Liver cytosol experiments with [^18F]12 were performed according to reported procedures.
(§3) Vanilin (40 µM final) was used as positive control for the activity of the liver cytosols and was separately incubated under the conditions described above (1% EtOH final). […] More than 80% of the vanilin had been degraded after 60 min in the presence of HLC, while around 60% of the vanilin had been degraded with RLC. There was no change in the degradation rate with and without 1% EtOH in the incubation mixture.

A short description of data set [7]: Liver cytosol assay (HLC). The conditions noted are these: for stability toward HLC: 2 mg/mL HLC, up to 60 min, 37 °C. Type of data set: in vitro ADME, human. Here is the method: as §2, §3

In general, logD refers to lipophilicity at a set pH, counting ionised and neutral species. Lower therefore signals a more hydrophilic compound. For `N#C[C@@H]1CC(F)(F)CN1C(=O)CNC(=O)c1ccnc2ccc(OCCCN3CCN(C(=O)c4ccc(OS(=O)(=O)[18F])cc4)CC3)cc12` [[^18F]12], the “stability in EtOH” value in the data set “Stability in EtOH” is “stable”. The compound also displayed a pH-dependent lipophilicity (logD) in data set [1] of 1.81. For the same compound, the “stability in PBS” value in data set [2] is “stable”. The “half-time toward HLM” value in data set [3] (1 mg/mL HLM, 2 mM NADPH, 1.6 µM tracer, 37 °C, one-phase decay) amounted to 4.4 min. Moreover, the “stability in presence of HLM without NADPH (control)” value in data set [3] (NADPH omitted, 60 min) is “apparently stable”. The figures for the “fraction degraded in human serum” value in data set [4] (120 min incubation) and in data set [4] (after 60 min) were “approximately 38%” and “approximately 20%”, respectively. The “stability in human serum” value in data set [4] (after only 15 min) is listed as “clear signs of instability”. In addition, in data set [5] (i.v., after injection), the “time of maximum activity concentration in kidney” value is given as 2 min. Further, in data set [5] (i.v., after injection), the “time of maximum activity concentration in liver” value came to 2 min. In addition, the “activity concentration in bones” value in data set [5] (i.v., within 2 h) was “continuously increasing”. In addition, in data set [5] (retention in gall bladder and intestine, 2 h), the “fraction of initially delivered activity dose excreted via hepatobiliary pathway” value is reported as 45%. Further, in data set [5] (retention in urinary bladder, 2 h), the “fraction of initially delivered activity dose excreted via renal pathway” value was found to be 10%. For the same compound, the “stability toward RLC” value was “largely stable; also recorded: mostly stable” in data set [6] and “No degradation” in data set [6] (listed as [18F]12). The entries for the “stability toward HLC” value in data set [7] and in data set [7] (listed as [18F]12) were “largely stable; also recorded: mostly stable” and “No degradation”, respectively. Besides, in data set [7] (liver cytosols as source of AO), the “substrate of aldehyde oxidase (AO)” value was “not to be a substrate of AO”.
